Experimental data published in ChEMBL document CHEMBL1131696, “Highly constrained dipeptoid analogues containing a type II' beta-turn mimic as novel and selective CCK-A receptor ligands” (Bioorg Med Chem Lett, 1999).

Legend:
[1] = target: T1, Cholecystokinin receptor type A (Rattus norvegicus, UniProt P30551); assay: Inhibition of [3H]propionyl-CCK-8 binding to rat pancreas cholecystokinin-A (CCK-A) receptor
T1 sequence (P30551 whole entry): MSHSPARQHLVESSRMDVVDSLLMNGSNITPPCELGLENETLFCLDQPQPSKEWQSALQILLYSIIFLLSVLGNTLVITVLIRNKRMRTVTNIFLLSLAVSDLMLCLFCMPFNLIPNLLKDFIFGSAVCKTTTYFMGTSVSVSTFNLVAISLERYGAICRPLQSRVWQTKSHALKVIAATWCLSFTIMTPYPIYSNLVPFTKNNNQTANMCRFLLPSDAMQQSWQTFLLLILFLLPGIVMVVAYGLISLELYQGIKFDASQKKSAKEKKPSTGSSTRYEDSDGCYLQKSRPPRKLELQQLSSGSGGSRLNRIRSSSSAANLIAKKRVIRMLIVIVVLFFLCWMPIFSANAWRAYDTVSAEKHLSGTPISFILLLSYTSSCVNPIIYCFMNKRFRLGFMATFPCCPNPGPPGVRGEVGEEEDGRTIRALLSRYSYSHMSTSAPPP

[2] = target: T2, Gastrin/cholecystokinin type B receptor (Mus musculus, UniProt P56481); assay: Inhibition of [3H]propionyl-CCK-8 binding to mouse cerebral cortex membrane cholecystokinin-B (CCK-B) receptor; type: tissue-based
T2 sequence (P56481 whole entry): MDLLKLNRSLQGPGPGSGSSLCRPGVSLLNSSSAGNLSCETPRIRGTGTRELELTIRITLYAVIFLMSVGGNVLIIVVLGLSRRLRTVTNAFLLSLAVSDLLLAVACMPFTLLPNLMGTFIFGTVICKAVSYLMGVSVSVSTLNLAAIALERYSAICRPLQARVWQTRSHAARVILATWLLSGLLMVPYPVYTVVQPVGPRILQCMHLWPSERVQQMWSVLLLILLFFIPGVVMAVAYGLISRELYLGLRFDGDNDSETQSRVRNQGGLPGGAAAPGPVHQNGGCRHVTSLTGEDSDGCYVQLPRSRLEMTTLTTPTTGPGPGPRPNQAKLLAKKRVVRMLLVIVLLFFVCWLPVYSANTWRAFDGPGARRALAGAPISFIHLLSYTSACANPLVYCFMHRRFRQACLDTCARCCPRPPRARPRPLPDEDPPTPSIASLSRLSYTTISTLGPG

Structure (SMILES) | IC50 [1] [nM] | IC50 [2] [nM]
C[Si](C)(C)CCOC(=O)C[C@@H](Cc1ccccc1)NC(=O)[C@@H]1Cc2c([nH]c3ccccc23)[C@@H]2C[C@H](NC(=O)OCc3ccccc3)C(=O)N12 | 1400 | > 10000
O=C(O)C[C@H](Cc1ccccc1)NC(=O)[C@@H]1Cc2c([nH]c3ccccc23)[C@H]2C[C@H](NC(=O)OCc3ccccc3)C(=O)N21 | 88 | > 10000
C[Si](C)(C)CCOC(=O)C[C@H](Cc1ccccc1)NC(=O)[C@@H]1Cc2c([nH]c3ccccc23)[C@@H]2C[C@H](NC(=O)OCc3ccccc3)C(=O)N12 | 460 | > 10000
CC(C)(C)OC(=O)N[C@H]1C[C@@H]2c3[nH]c4ccccc4c3C[C@@H](C(=O)N[C@H](CC(=O)O)Cc3ccccc3)N2C1=O | > 10000 | > 10000
C[Si](C)(C)CCOC(=O)C[C@@H](Cc1ccccc1)NC(=O)[C@@H]1Cc2c([nH]c3ccccc23)[C@H]2C[C@H](NC(=O)OCc3ccccc3)C(=O)N21 | 180 | 1500
CC(C)(C)OC(=O)N[C@H]1C[C@@H]2c3[nH]c4ccccc4c3C[C@@H](C(=O)N[C@@H](CC(=O)O)Cc3ccccc3)N2C1=O | 4480 | > 10000
C[Si](C)(C)CCOC(=O)C[C@H](Cc1ccccc1)NC(=O)[C@@H]1Cc2c([nH]c3ccccc23)[C@H]2C[C@H](NC(=O)OCc3ccccc3)C(=O)N21 | 220 | 2400

Second part, the compound after the results:

IC50 [1] [nM] | IC50 [2] [nM] | Structure (SMILES)
635 | > 10000 | O=C(O)C[C@H](Cc1ccccc1)NC(=O)[C@@H]1Cc2c([nH]c3ccccc23)[C@@H]2C[C@H](NC(=O)OCc3ccccc3)C(=O)N12
7.4 | 2700 | O=C(O)C[C@@H](Cc1ccccc1)NC(=O)[C@@H]1Cc2c([nH]c3ccccc23)[C@H]2C[C@H](NC(=O)OCc3ccccc3)C(=O)N21
1000 | > 10000 | O=C(O)C[C@@H](Cc1ccccc1)NC(=O)[C@@H]1Cc2c([nH]c3ccccc23)[C@@H]2C[C@H](NC(=O)OCc3ccccc3)C(=O)N12
